Measured values published in paper PMC11458808, “Identification and development of a series of disubstituted piperazines for the treatment of Chagas disease” (European Journal of Medicinal Chemistry, 2022).
≈ marks a conversion by molar mass, not a printed value.

Legend:
[1] = Intrinsic clearance in mouse liver microsomes; format: in vitro ADME; conditions: mouse liver microsomal intrinsic clearance
Description: 2.2 Intrinsic clearance: This assay was conducted as previously described in [5].

[2] = Aqueous (kinetic) solubility by CAD; format: physicochemical; conditions: kinetic solubility measured by CAD
Description: 2.1 Aqueous solubility: This assay was conducted as previously described in [4].

[3] = ChromLogD pH7.4 (chromatographic hydrophobicity index); format: physicochemical; conditions: pH 7.4; CHIpH7.4 × 0.0857–2; read-out: ChromlogDpH7.4
[4] = tested on: intracellular T. cruzi; design: method as in PMID 25740547; conditions: HTS in NIH-3T3 fibroblasts; cited from earlier work
[5] = tested on: T. cruzi infected Vero cells; assay: Washout assay; format: cell-based, Trypanosoma cruzi; conditions: for Relapse Day: 8 days treatment
Description: (§1) (Supplementary Information, Fig. S1). We tested 1 in a T. cruzi washout assay to assess the compound's ability to clear all parasites in vitro. In this experiment, T. cruzi, cultured in Vero cells were treated with compound 1 at 20- to 30-fold the EC50 for 8 days (with compound being re-supplemented after 4 days). After treatment, the culture medium containing compound 1 was removed, the cell monolayer was washed extensively and then incubated with fresh medium containing no compound 1. […] The same result was obtained in three independent experiments (Supplementary Information, Table S1). […] We therefore ran a 4-day PK study on 1, dosing at 50 mg/kg twice daily. As the intrinsic clearance was very high, compound 1 was co-dosed with 1-ABT (1-aminobenzotriazole) to inhibit CYP-mediated degradation and maximise exposure. […] As this was a novel series with an unknown mechanism of action, the PKPD drivers were unknown, so this coverage was considered suitable for progression to an animal model of Chagas disease. Compound 1 was dosed twice daily at 50 mg/kg for 5 days in an acute Chagas disease mouse efficacy study. This mouse model, developed by the Kelly laboratory, is able to distinguish between benznidazole (clinically effective) and posaconazole (clinically ineffective).
1.2 Washout assay: Vero cells were infected overnight at MOI 5 with T. cruzi X10/7 A1 trypomastigotes in MEM media (Gibco) containing 10% FCS (Hyclone) followed by washing of the monolayer to remove any extracellular trypomastigotes. 24 h later, infected cells were trypsinised and plated in T25 flasks in presence of compounds at the indicated concentrations and incubated for 8 days in MEM media (Gibco) containing 1% FCS. Four days into the treatment the media was replaced with fresh compound-containing media. After the treatment period, monolayers were washed extensively. The cultures were then maintained, replacing media twice weekly, until trypomastigotes could be observed by light microscopy. Observations were carried out twice weekly for up to 60 days post washout.
Results for three independent washout experiments (experiment c is reported in the main manuscript). T. cruzi infected Vero cells were treated for 8 days at the indicated concentrations (compounds replenished after 4 days), followed by extensive washing to remove compounds and incubation until parasites were observed microscopically. ^a day after washout of compounds on which egressed parasites were detected first.

[6] = tested on: T. cruzi; assay: Acute Chagas disease mouse efficacy study (bioluminescence imaging); format: in vivo, Trypanosoma cruzi
Description: as §1, with “Compound 1 was dosed twice daily at 50 mg/kg for 5 days in an acute Chagas disease mouse efficacy study. This mouse model, developed by the Kelly laboratory, is able to distinguish between benznidazole (clinically effective) and posaconazole (clinically ineffective).” left out
Fig. 2 Results of acute T. cruzi infection efficacy study. […] 5 day dosing begins on day 14 (b) Quantification (Total Flux [p/s]) of combined ventral and dorsal bioluminescence for the mice shown in (c). […] (For interpretation of the references to colour in this figure legend, the reader is referred to the Web version of this article.) […]

[7] = Blood exposure in the acute efficacy study; format: in vivo, mouse; conditions: days 1 and 5; 50 mg/kg b.i.d. with 1-ABT
Description: as §1, with “Compound 1 was dosed twice daily at 50 mg/kg for 5 days in an acute Chagas disease mouse efficacy study. This mouse model, developed by the Kelly laboratory, is able to distinguish between benznidazole (clinically effective) and posaconazole (clinically ineffective).” left out
Fig. 2 Results of acute T. cruzi infection efficacy study. […] 5 day dosing begins on day 14 (b) Quantification (Total Flux [p/s]) of combined ventral and dorsal bioluminescence for the mice shown in (c). […] (For interpretation of the references to colour in this figure legend, the reader is referred to the Web version of this article.)

[8] = target: T. cruzi CYP51 (Trypanosoma cruzi, UniProt Q7Z1V1); assay: CYP51 assay; format: biochemical; conditions: read-out: T.cruzi CYP51 (pIC50) (converted)
Description: 1.4 CYP51 assay: Potency against T. cruzi CYP51 was determined as previously described in [3].

[9] = tested on: intracellular T. cruzi X10/7 A1 amastigotes; assay: Intracellular T. cruzi assay; format: cell-based, Trypanosoma cruzi; conditions: Trypanosoma cruzi; potency against intracellular T. cruzi amastigotes; at least three independent replicates, standard deviations ≤0.2; read-out: T. cruzi (pEC50) (converted)
Description: 1.1 Intracellular T. cruzi assay: Potency against intracellular T. cruzi X10/7 A1 amastigotes was determined as described previously with as sole modification that the compound treatment duration was increased from 72h to 96h.

[10] = tested on: intracellular T. cruzi X10/7-E2Crimson; assay: Rate-of-kill studies; format: cell-based, Trypanosoma cruzi; conditions: compared with posaconazole (CYP51 inhibitor)
Description: 1.3 Rate-of-kill studies: Experiments with intracellular T. cruzi X10/7-E2Crimson were carried out as previously described in [2].

Chain of T. cruzi CYP51 (Q7Z1V1 whole entry): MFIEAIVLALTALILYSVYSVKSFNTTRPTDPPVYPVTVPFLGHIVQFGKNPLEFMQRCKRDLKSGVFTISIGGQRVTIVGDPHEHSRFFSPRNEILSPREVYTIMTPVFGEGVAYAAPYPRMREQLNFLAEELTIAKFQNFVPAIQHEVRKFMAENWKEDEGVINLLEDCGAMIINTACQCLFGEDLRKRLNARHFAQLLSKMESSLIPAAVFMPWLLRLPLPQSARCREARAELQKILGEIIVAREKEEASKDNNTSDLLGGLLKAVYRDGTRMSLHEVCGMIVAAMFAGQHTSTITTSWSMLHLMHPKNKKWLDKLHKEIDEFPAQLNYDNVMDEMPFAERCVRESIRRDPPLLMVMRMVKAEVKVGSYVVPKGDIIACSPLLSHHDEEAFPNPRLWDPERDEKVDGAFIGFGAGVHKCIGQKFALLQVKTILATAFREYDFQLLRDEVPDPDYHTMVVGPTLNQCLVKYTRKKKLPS

Row | Structure (SMILES) | Mouse CLi [1] [mL/min/g] | solubility [2] [µM] | chromatographic logD [3] | T. cruzi pEC50 (reported potency) [4] | Relapse Day ([5]; experiment a, replicate 1, 36 µM, 12.5-fold EC50) [days] | Relapse Day ([5]; experiment a, replicate 2, 36 µM, 12.5-fold EC50) [days] | Relapse Day ([5]; experiment b, 36 µM, 12.5-fold EC50) [days] | Relapse Day ([5]; experiment c, 36 μM, 12.5-fold EC50) [days] | Relapse Day ([5]; experiment c, 144 μM, 50-fold EC50, observed up to 60 days) [days] | Outcome after immunosuppression ([6]; 50 mg/kg b.i.d. for 5 days with 1-ABT, cyclophosphamide 200 mg/kg i.p. days 28, 32, 36) | Parasite burden ([6]; 50 mg/kg b.i.d. for 5 days, 1-ABT 50 mg/kg pre-treatment, compared to vehicle) | Total blood exposure relative to in vitro EC99 [7] | IC50 [8] [µM] | Time after washout until parasite relapse was observed ([5]; 20- to 30-fold the EC50 for 8 days, re-supplemented after 4 days) [weeks] | Relapse Day ([5]; experiment a, 5 µM, 32-fold EC50) [days] | Relapse Day ([5]; experiment b, 5.5 µM, 35-fold EC50) [days] | Relapse Day ([5]; experiment c, 3.9 μM, 25-fold EC50, day after washout on which egressed parasites first detected) [days] | EC50 [9] [µM] | Rate-of-kill profile [10]
1 | Cc1ccc(S(=O)(=O)Nc2ccc(CN3CCN(C(=O)c4cccc(C#N)c4)CC3)cc2)cc1 [TCMDC-143497] | 30 | 85 (≈ 40.3 µg/mL) | 4.8 | 6.4 |  |  |  |  |  |  |  |  |  |  |  |  |  |  | 
2 | O=C(Cn1ccnc1[N+](=O)[O-])NCc1ccccc1 [benznidazole] |  |  |  |  | 18 | 14 | 14 | 18 | >60 |  |  |  |  |  |  |  |  |  | 
3 | Cc1ccc(S(=O)(=O)Nc2ccc(CN3CCN(C(=O)c4cccc(Cl)c4)CC3)cc2)cc1 [Compound 1, N-(4-((4-(3-chlorobenzoyl)piperazin-1-yl)methyl)phenyl)-4-methylbenzenesulfonamide] | >50 | 38 (≈ 18.4 µg/mL) | 5.8 |  |  |  |  |  |  | relapse is observed post immunosuppression | reduction in parasite burden compared to vehicle | exceeded the in vitro EC99 for the duration of dosing | 20 | ~2 | 11 | 14 | 11 | 0.158 | faster kill profile
